Laboratory results from patent publication USRE40086E1, “Method for treating bacterial infection with novel 7-substituted-9-substituted amino 6-demethyl-6-deoxytetracyclines” (Wyeth Holdings Corporation, priority 1991, dated 2008).

What was measured:
E. coli MC4100 Tet sens. = experiment: MIC, agar dilution (Table IA); assay type: cell-based; conditions: unit assumed
[1] = tested on: S. aureus UBMS 90-2 (tetM); experiment: MIC, agar dilution; assay type: cell-based; conditions: S. aureus UBMS 90-2 TetM; Table IA; unit assumed
E. coli J3272 TetD = experiment: MIC, agar dilution (Table IA); assay type: cell-based; conditions: unit assumed
S. aureus NEMC 8769/89-4 = experiment: MIC, agar dilution (Table IA); assay type: cell-based; conditions: unit assumed
E. coli UBMS 88-1 (tetB) = experiment: MIC, agar dilution; assay type: cell-based; conditions: E. coli UBMS 88-1 TetB; Table IA; unit assumed
[2] = tested on: S. aureus ATCC 29213 (Sensitive); experiment: MIC, agar dilution; assay type: cell-based; conditions: S. aureus ATCC 29213; Table IA; unit assumed
E. coli MC4100 TetB = experiment: MIC, agar dilution (Table IA); assay type: cell-based; conditions: unit assumed
[3] = tested on: X. maltophilia NEMC 87210; experiment: MIC, agar dilution (Table IA); assay type: cell-based; conditions: unit assumed
[4] = tested on: S. aureus UBMS 88-7 (tetK); experiment: MIC, agar dilution; assay type: cell-based; conditions: S. aureus UBMS 88-7 TetK; Table IA; unit assumed
E. coli PRP1 TetA = experiment: MIC, agar dilution (Table IA); assay type: cell-based; conditions: unit assumed
E. coli ATCC 25922 = experiment: MIC, agar dilution; assay type: cell-based; conditions: E. coli ATCC 25922; Table IA; unit assumed
[5] = tested on: S. aureus UBMS 90-1 (tetM); experiment: MIC, agar dilution; assay type: cell-based; conditions: S. aureus UBMS 90-1 TetM; Table IA; unit assumed
S. mariescens FDOR 8733 = experiment: MIC, agar dilution (Table IA); assay type: cell-based; conditions: unit assumed
E. coli BAJ9003 = experiment: MIC, agar dilution (Table IA); assay type: cell-based; conditions: unit assumed
[6] = tested on: Ps. acruginosa ATCC 27853; experiment: MIC, agar dilution (Table IA); assay type: cell-based; conditions: unit assumed
S. aureus ROSE (MP) = experiment: MIC, agar dilution (Table IA); assay type: cell-based; conditions: unit assumed
S. aureus SMITH (sens) = experiment: In vivo antibacterial evaluation, acute lethal infection in mice; conditions: Oral
Excerpt: In Vivo Antibacterial Evaluation (Table VII)

E. coli UBMS 89-1 (tetM) = experiment: MIC, agar dilution; assay type: cell-based; conditions: E. coli UBMS 89-1 TetM; Table IA; unit assumed
[7] = tested on: S. aureus IVES 1983 (meth. resistant); experiment: MIC, agar dilution; assay type: cell-based; conditions: S. aureus IVES 1983; Table IA; unit assumed
E. faecalis ATCC 29212 = experiment: MIC, agar dilution; assay type: cell-based; conditions: E. faecalis ATCC 29212; Table IA; unit assumed
E. coli UBMS 90-4 (tetM) = experiment: MIC, agar dilution; assay type: cell-based; conditions: E. coli UBMS 90-4 TetM; Table IA; unit assumed
E. coli J2175 = experiment: MIC, agar dilution (Table IA); assay type: cell-based; conditions: unit assumed
[8] = tested on: S. aureus UBMS 88-4 (Sensitive); experiment: MIC, agar dilution; assay type: cell-based; conditions: S. aureus UBMS 88-4; Table IA; unit assumed
E. coli J3272 TetC = experiment: MIC, agar dilution (Table IA); assay type: cell-based; conditions: unit assumed
E. faecalis 12201 = experiment: MIC, agar dilution; assay type: cell-based; conditions: Enterococcus 12201; Table IA; unit assumed
[9] = tested on: S. aureus UBMS 90-3 (Sensitive); experiment: MIC, agar dilution; assay type: cell-based; conditions: S. aureus UBMS 90-3; Table IA; unit assumed
[10] = tested on: E. coli UBMS 89-2 (Sensitive); experiment: MIC, agar dilution; assay type: cell-based; conditions: E. coli UBMS 89-2 Tet Sens.; Table IA; unit assumed
[11] = tested on: S. aureus UBMS 88-5 (tetM); experiment: MIC, agar dilution; assay type: cell-based; conditions: S. aureus UBMS 88-5 TetM; Table IA; unit assumed
E. coli #311 (MP) = experiment: MIC, agar dilution (Table IA); assay type: cell-based; conditions: unit assumed
E. coli UBMS 90-5 = experiment: MIC, agar dilution (Table IA); assay type: cell-based; conditions: unit assumed
[12] = tested on: S. haemolyticus AVAH 88-3; experiment: MIC, agar dilution; assay type: cell-based; conditions: S. hemolyticus AVHAH 88-3; Table IA; unit assumed
[13] = tested on: S. aureus IVES 2943 (meth. resistant); experiment: MIC, agar dilution; assay type: cell-based; conditions: S. aureus IVES 2943; Table IA; unit assumed
[14] = tested on: S. aureus Smith (Sensitive); experiment: MIC, agar dilution; assay type: cell-based; conditions: S. aureus SMITH (MP); Table IA; unit assumed

Compound | Antibacterial activity (MIC) (E. coli MC4100 Tet sens.) | Antibacterial activity (MIC) [1] | Antibacterial activity (MIC) (E. coli J3272 TetD) | Antibacterial activity (MIC) (S. aureus NEMC 8769/89-4) | Antibacterial activity (MIC) (E. coli UBMS 88-1 (tetB)) | Antibacterial activity (MIC) [2] | Antibacterial activity (MIC) (E. coli MC4100 TetB) | Antibacterial activity (MIC) [3] | Antibacterial activity (MIC) [4] | Antibacterial activity (MIC) (E. coli PRP1 TetA) | Antibacterial activity (MIC) (E. coli ATCC 25922) | Antibacterial activity (MIC) [5] | Antibacterial activity (MIC) (S. mariescens FDOR 8733) | Antibacterial activity (MIC) (E. coli BAJ9003) | Antibacterial activity (MIC) [6] | Antibacterial activity (MIC) (S. aureus ROSE (MP)) | ED50 (S. aureus SMITH (sens)) | Antibacterial activity (MIC) (E. coli UBMS 89-1 (tetM)) | Antibacterial activity (MIC) [7] | Antibacterial activity (MIC) (E. faecalis ATCC 29212) | also measured
CC(C(=O)Nc1cc(N(C)C)c2c(c1O)C(=O)C1=C(O)C3(O)C(=O)C(C(N)=O)=C(O)C(N(C)C)C3CC1C2)N1CCCC1.Cl.Cl (stereo not drawn) [AAA, [7S-(7alpha,10aalpha)]-N-[9-(Aminocarbonyl)-4,7-bis(dimethylamino)-5,5a,6,6a,7,10,10a,12-octahydro-1,8,10a,11-tetrahydroxy-10,12-dioxo-2-naphthacenyl)-alpha-methyl-1-pyrrolidineacetamide dihydrochloride] | 0.12 µg/mL | 0.25 µg/mL | 0.12 µg/mL | 0.12 µg/mL | 0.5 µg/mL | 0.25 µg/mL | 0.5 µg/mL | 0.5 µg/mL | 0.5 µg/mL | 0.5 µg/mL | 0.25 µg/mL | 0.5 µg/mL | 4 µg/mL | 0.06 µg/mL | > 32 µg/mL | 2 µg/mL | >16 mg/kg | 0.12 µg/mL | 0.5 µg/mL | 0.12 µg/mL | Antibacterial activity (MIC) (E. coli UBMS 90-4 (tetM)): 0.5 µg/mL; Antibacterial activity (MIC) (E. coli J2175): 0.5 µg/mL; Antibacterial activity (MIC) [8]: 0.25 µg/mL; Antibacterial activity (MIC) (E. coli J3272 TetC): 0.5 µg/mL; Antibacterial activity (MIC) (E. faecalis 12201): 0.12 µg/mL; Antibacterial activity (MIC) [9]: 0.25 µg/mL; Antibacterial activity (MIC) [10]: 0.5 µg/mL; Antibacterial activity (MIC) [11]: 0.25 µg/mL; Antibacterial activity (MIC) (E. coli #311 (MP)): 0.25 µg/mL; Antibacterial activity (MIC) (E. coli UBMS 90-5): 0.5 µg/mL; Antibacterial activity (MIC) [12]: 0.5 µg/mL; Antibacterial activity (MIC) [13]: 0.5 µg/mL; Antibacterial activity (MIC) [14]: 0.25 µg/mL
CN(C)c1cc(NC(=O)CNCc2ccccc2)c(O)c2c1CC1CC3C(N(C)C)C(O)=C(C(N)=O)C(=O)C3(O)C(O)=C1C2=O.Cl.Cl (stereo not drawn) [EEE, [4S-(4alpha,12aalpha)]-4,7-Bis(dimethylamino)-1,4,4a,5,5a,6,11,12a-octahydro-3,10,12,12a-tetrahydroxy-1,11-dioxo-9-[[[(phenylmethyl)amino]acetyl]amino]-2-naphthacenecarboxamide dihydrochloride] | 0.5 µg/mL | 0.25 µg/mL | 0.5 µg/mL | 0.12 µg/mL | 2 µg/mL | 0.5 µg/mL | 4 µg/mL | 1 µg/mL | 2 µg/mL | 4 µg/mL | 0.5 µg/mL | 0.5 µg/mL | 4 µg/mL | 0.25 µg/mL | 32 µg/mL | 8 µg/mL | 8 to 16 mg/kg | 0.5 µg/mL | 2 µg/mL | 0.25 µg/mL | Antibacterial activity (MIC) (E. coli UBMS 90-4 (tetM)): 0.5 µg/mL; Antibacterial activity (MIC) (E. coli J2175): 4 µg/mL; Antibacterial activity (MIC) [8]: 0.25 µg/mL; Antibacterial activity (MIC) (E. coli J3272 TetC): 2 µg/mL; Antibacterial activity (MIC) (E. faecalis 12201): 0.25 µg/mL; Antibacterial activity (MIC) [9]: 0.25 µg/mL; Antibacterial activity (MIC) [10]: 4 µg/mL; Antibacterial activity (MIC) [11]: 0.5 µg/mL; Antibacterial activity (MIC) (E. coli #311 (MP)): 0.5 µg/mL; Antibacterial activity (MIC) (E. coli UBMS 90-5): 0.5 µg/mL; Antibacterial activity (MIC) [12]: 2 µg/mL; Antibacterial activity (MIC) [13]: 2 µg/mL; Antibacterial activity (MIC) [14]: 0.25 µg/mL
CCCCCNCC(=O)Nc1cc(N(C)C)c2c(c1O)C(=O)C1=C(O)C3(O)C(=O)C(C(N)=O)=C(O)C(N(C)C)C3CC1C2.Cl.Cl (stereo not drawn) [DDD, [4S-(4alpha,12aalpha)]-4,7-Bis(dimethylamino)-1,4 4a,5,5a,6,11,12a-octahydro-3,10-12,12a-tetrahydroxy-1,11-dioxo-9-[[(pentylamino)acetyl]amino)-2-naphthacenecarboxamide dihydrochloride] | 0.12 µg/mL | 0.5 µg/mL | 0.25 µg/mL | 0.25 µg/mL | 0.5 µg/mL | 1 µg/mL | 0.5 µg/mL | 0.5 µg/mL | 2 µg/mL | 1 µg/mL | 0.5 µg/mL | 1 µg/mL | 8 µg/mL | 0.12 µg/mL | 32 µg/mL | 4 µg/mL | 8 to 16 mg/kg | 0.25 µg/mL | 4 µg/mL | 0.25 µg/mL | Antibacterial activity (MIC) (E. coli UBMS 90-4 (tetM)): 0.5 µg/mL; Antibacterial activity (MIC) (E. coli J2175): 0.5 µg/mL; Antibacterial activity (MIC) [8]: 0.5 µg/mL; Antibacterial activity (MIC) (E. coli J3272 TetC): 0.5 µg/mL; Antibacterial activity (MIC) (E. faecalis 12201): 0.25 µg/mL; Antibacterial activity (MIC) [9]: 0.5 µg/mL; Antibacterial activity (MIC) [10]: 0.5 µg/mL; Antibacterial activity (MIC) [11]: 0.5 µg/mL; Antibacterial activity (MIC) (E. coli #311 (MP)): 0.5 µg/mL; Antibacterial activity (MIC) (E. coli UBMS 90-5): 0.5 µg/mL; Antibacterial activity (MIC) [12]: 0.5 µg/mL; Antibacterial activity (MIC) [13]: 4 µg/mL; Antibacterial activity (MIC) [14]: 0.25 µg/mL
